Experimental data reported in PubChem BioAssay (NCI).
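All cell lines were grown in 96-well plates and treated with compound for 48 hours. TGI denotes the concentration required for complete inhibition of growth.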

Tests used:
Experiment in all cases: NCI-60 cell line screen, 48 h
OVCAR-4 ovarian = tested on: OVCAR-4 ovarian
SK-OV-3 ovarian = tested on: SK-OV-3 ovarian
OVCAR-8 ovarian = tested on: OVCAR-8 ovarian
M19-MEL melanoma = tested on: M19-MEL melanoma
KM20L2 colon = tested on: KM20L2 colon
CAKI-1 renal = tested on: CAKI-1 renal
ACHN renal = tested on: ACHN renal
NCI-H23 lung = tested on: NCI-H23 lung
UACC-257 melanoma = tested on: UACC-257 melanoma
NCI/ADR-RES ovarian = tested on: NCI/ADR-RES ovarian
MDA-MB-231 breast = tested on: MDA-MB-231 breast

| Compound | TGI (OVCAR-4 ovarian) [µM] | TGI (SK-OV-3 ovarian) [µM] | TGI (OVCAR-8 ovarian) [µM] | TGI (M19-MEL melanoma) [µM] | TGI (KM20L2 colon) [µM] | TGI (CAKI-1 renal) [µM] | TGI (ACHN renal) [µM] | TGI (NCI-H23 lung) [µM] | TGI (UACC-257 melanoma) [µM] | TGI (NCI/ADR-RES ovarian) [µM] | TGI (MDA-MB-231 breast) [µM] |
| --- | --- | --- | --- | --- | --- | --- | --- | --- | --- | --- | --- |
| C=C1C(=O)C23C(O)CC4C5(C)CCCC4(C(O)OC5)C2C(OC(C)=O)CC1C3O (centres undefined) | 27.8 | 37.1 | 14.1 | 30.7 | 21.2 | 17.8 | 25.3 | 19.3 | – | – | – |
| O=C(O)CCCCCCCCC(=O)O | > 500 | > 500 | > 500 | > 500 | > 500 | > 500 | – | > 500 | > 500 | > 500 | – |
| O=C(NN1C(=O)CSC1c1cccc(F)c1)c1ccncc1 (centres undefined) | > 100 | > 100 | > 100 | – | > 100 | > 100 | > 100 | > 100 | > 100 | – | – |
| COc1cc(C2c3cc4c(cc3[C@@H](Nc3ccc5c(c3)OCO5)C3COC(=O)[C@H]23)OCO4)cc(OC)c1O (some centres undefined) | – | 16.3 | > 20.5 | > 100 | > 24.3 | 1.43 | – | 4.07 | 8.38 | 41.6 | – |
| COc1ccc(/C=N/n2c(C)nc3c(sc(=S)n3-c3ccccc3)c2=O)cc1 | – | > 100 | > 100 | > 100 | – | – | > 100 | > 100 | > 100 | – | – |
| O=C(O)/C=C\C(=O)Nc1ccc(S(=O)(=O)c2ccc(NC(=O)/C=C\C(=O)O)cc2)cc1 | > 100 | > 100 | > 100 | > 100 | > 100 | > 100 | > 100 | > 100 | > 100 | – | – |
| C/C(=N\Nc1nc2ccccc2s1)c1ccc2ccccc2n1 | > 100 | > 100 | > 100 | – | – | > 100 | > 100 | > 100 | > 100 | > 100 | > 100 |
| CCOC(=O)c1sc2ncnc(N)c2c1C | > 100 | > 100 | > 100 | – | – | > 100 | > 100 | > 100 | > 100 | > 100 | > 100 |
| O=C(OCC1OC(n2nc(Cn3nnc(-c4cccnc4)n3)n(-c3cccc4ccccc34)c2=S)C(OC(=O)c2ccccc2)C1OC(=O)c1ccccc1)c1ccccc1 (centres undefined) | > 100 | > 100 | > 100 | – | – | > 100 | > 100 | > 100 | > 100 | > 100 | > 100 |
| C[C@]12CC[C@@H]3c4ccc(O)cc4CC[C@H]3[C@@H]1C/C(=C\c1ccc(C#N)cc1)C2=O | > 100 | > 100 | > 100 | – | – | > 100 | > 100 | > 100 | > 100 | > 100 | > 100 |
| O=C(O)CN(CC(=O)O)C(C(=O)O)c1ccccc1 (centres undefined) | > 100 | > 100 | > 100 | – | – | > 100 | > 100 | > 100 | > 100 | > 100 | > 100 |
| CSc1nc2c(ncn2C2OC(CO)C(O)C(O)C2O)c(=O)[nH]1 (centres undefined) | > 100 | > 100 | > 100 | > 100 | > 100 | – | – | > 100 | > 100 | > 100 | – |
| Cc1cc(C)nc(NS(=O)(=O)c2ccc(NC(=O)c3cccc4c(NNc5ccc(S(=O)(=O)N=C(N)N)cc5)c5ccccc5nc34)cc2)n1 | > 50 | > 50 | > 50 | – | – | > 50 | > 50 | > 50 | > 50 | > 50 | > 50 |
| O=c1c2ccccc2sc2ccccc12 | > 100 | > 100 | > 100 | – | – | > 100 | > 100 | > 100 | > 100 | > 100 | > 100 |
| C[C@H]1[C@H](C)CC[C@]2(C(=O)OC3OC(CO)C(O)C(O)C3O)CC[C@]3(C)C(=CC[C@@H]4[C@@]5(C)C[C@H]6OC(=O)c7cc(O)c(O)c(O)c7-c7c(cc(O)c(O)c7O)C(=O)O[C@@H]6C(CO)(CO)[C@@H]5CC[C@]43C)[C@H]12 (some centres undefined) | > 100 | > 100 | > 100 | – | – | > 84.1 | > 100 | > 100 | > 100 | > 100 | 33 |
| O=S1SC(=S)C2C=CC=CC21 (centres undefined) | > 100 | > 100 | > 100 | – | – | > 100 | > 100 | > 100 | > 100 | > 100 | > 100 |
| C[n+]1c(/C=C/c2ccc(O)c3ncccc23)[se]c2ccccc21 | > 47 | 23.4 | 29.8 | – | – | 26 | 8.54 | 37.6 | 11.1 | 28.7 | 8.33 |
| CC(C)[Si](OC/C(=C/COC(C)(C)C)[C@H]1CC=C(C(=O)c2ccccc2N2CN(C)C(=O)N(C)C2)C1)(C(C)C)C(C)C | 39.3 | 31.2 | 18.1 | – | – | 23.5 | 28.6 | 30 | 23.9 | 32.7 | 26.6 |
| COc1nc2c(N3CCCC3)nc(N3CCNCC3)nc2nc1NCc1ccccc1 | 11.5 | 4.68 | 10.7 | – | – | 8.8 | 7.01 | 5.88 | 3.35 | 17.1 | 3.72 |
| C(=C\c1ccccc1)/COc1ccccc1C(N1CCOCC1)n1nc2ccccc2n1 (centres undefined) | 57.9 | 81.1 | 14 | – | – | 43.7 | 38.8 | 24.6 | 25.5 | 22.6 | 15 |
| CON(C)C(=O)C1CCCO1 (centres undefined) | > 100 | > 100 | > 100 | – | – | > 100 | > 100 | > 100 | > 100 | > 100 | > 100 |
| Cc1cc(O)c(-c2cc(O)c(C)cc2O)cc1O | 20.9 | 30.5 | 16.7 | – | – | 14.6 | 13.7 | 38.9 | 20.1 | 97.1 | 33.3 |
| O=C1C(C(O)(C(F)(F)F)C(F)(F)F)CCC1C(O)(C(F)(F)F)C(F)(F)F (centres undefined) | > 100 | > 100 | > 83.6 | – | – | 19.8 | > 61.5 | 6.75 | 34.8 | 32.6 | 17.9 |
| COc1ccc([C@H]2C=[N+]([O-])O[C@H](OC3CCCC3)[C@@H]2OC(C)=O)cc1OC | > 100 | > 100 | 62.2 | – | – | 29.3 | 88.4 | 57.2 | 54.3 | 63.6 | 78.2 |
